In patent US20120053211A1, “TREATMENT OF PANCREATIC CANCER” (ARDEA BIOSCIENCES, INC., priority 2009, published 2012):
Several values for one entry are separate records, joined by “and”; a condition that tells them apart may be missing. Equal values may be shown once.

Tested on: Bx-PC3-e242 Xenograft
Test: Bx-PC3-e242 Xenograft Study
Type: in vivo, female (nu/nu) mice
Design: key to Mean BW Nadir: — indicates no decrease in mean body weight was observed
Conditions: for % TGI: D15, compared to Group 1; for % TGD: [(T − C)/C] × 100; for MTV (n) D54: day of TGD analysis, excludes animals reaching endpoint; for MTV (n) D15: day of TGI analysis, includes animals at endpoint; for T − C: difference of median TTE versus control group (Group 1); for Mean TTE / Median TTE: endpoint 1500 mm^3; for Individual TTE values: individual animals 1-9, endpoint 1500 mm^3, study duration 54 days; for Mean BW Nadir: lowest group mean body weight as % change from Day 1; for No. of NTR: non-treatment-related death; for No. of PR: partial regression, 9 animals
Description: In vivo activity of compound B: Bx-PC3-e242 Xenograft Study Bx-PC3-e242 cells were injected into 11-week-old female (nu/nu) mice. Tumors were allowed to reach 115.5-116.7 mm^3 (group mean tumor range); 63-196 mm^3 (Individual Tumor Range) in size (23 days) and mice were randomized into 6 groups of 9 animals (body weight range 18.0-25.2 g). Mice were treated by according to the chart below:
Tumors were measured with a caliper and tumor volumes calculated using the following formula:
where w=width and l=length in mm of a tumor. Tumor weight is estimated with the assumption that 1 mg is equivalent to 1 mm^3 of tumor volume.
Each animal was euthanized when the tumor reached endpoint size or at the end of the study, whichever comes first. The time to endpoint (TTE) for each mouse is calculated according to the following equation
The study endpoint was 1500 mm^3, with a study duration of 54 days.
Treatment may cause partial regression (PR) or complete regression (CR) of the tumor in an animal. In a PR response, the tumor volume is 50% or less of its Day 1 volume for three consecutive measurements during the course of the study.
Treatment outcome is evaluated by tumor growth delay (TGD), defined as the increase in the median time to endpoint (TTE) in a treatment group compared to the control group:
Response to treatment was also evaluated for tumor growth inhibition (TGI), defined as the difference between the median tumor volumes (MTVs) of treated and control mice.
Animals were weighed daily for the first five days of the study and then twice weekly. The mice are observed frequently for overt signs of any adverse, treatment-related side effects, and clinical signs of toxicity were recorded when observed.

[1] = Group 3: Cmpd B 25 mg/kg po qd × 14
[2] = Group 4: Cmpd B 6.25 mg/kg po bid × 14 first day 1 dose
[3] = Group 6: Cmpd B 12.5 mg/kg po, then 6.25 mg/kg po bid × 11 first day 1 dose (start on day 4)

Cc1c(Nc2ccc(I)cc2F)c(NS(=O)(=O)C2CC2)cn(C)c1=O [Compound B, N-(4-(2-fluoro-4-iodophenylamino)-1,5-dimethyl-6-oxo-1,6-dihydropyridin-3-yl)cyclopropanesulfonamide]
Weekly Median Tumor Volume (number of animals in parentheses) (D1, Group 3: Cmpd B 25 mg/kg po qd × 14): 108 (9) mm^3 | Weekly Median Tumor Volume (number of animals in parentheses) (D1, Group 4: Cmpd B 6.25 mg/kg po bid × 14 first day 1 dose): 108 (9) mm^3 | Weekly Median Tumor Volume (number of animals in parentheses) (D1, Group 5: Cmpd B 9 mg/kg po): 108 (9) mm^3 | Weekly Median Tumor Volume (number of animals in parentheses) (D1, Group 6: Cmpd B 12.5 mg/kg po, then 6.25 mg/kg po bid × 11 first day 1 dose (start on day 4)): 75 (9) mm^3 | Weekly Median Tumor Volume (number of animals in parentheses) (D5, Group 3: Cmpd B 25 mg/kg po qd × 14): 75 (9) mm^3 | Weekly Median Tumor Volume (number of animals in parentheses) (D5, Group 4: Cmpd B 6.25 mg/kg po bid × 14 first day 1 dose): 75 (9) mm^3 | Weekly Median Tumor Volume (number of animals in parentheses) (D5, Group 5: Cmpd B 9 mg/kg po): 63 (9) mm^3 | Weekly Median Tumor Volume (number of animals in parentheses) (D5, Group 6: Cmpd B 12.5 mg/kg po, then 6.25 mg/kg po bid × 11 first day 1 dose (start on day 4)): 75 (9) mm^3 | Weekly Median Tumor Volume (number of animals in parentheses) (D10, Group 3: Cmpd B 25 mg/kg po qd × 14): 196 (9) mm^3 | Weekly Median Tumor Volume (number of animals in parentheses) (D10, Group 4: Cmpd B 6.25 mg/kg po bid × 14 first day 1 dose): 196 (9) mm^3 | Weekly Median Tumor Volume (number of animals in parentheses) (D10, Group 5: Cmpd B 9 mg/kg po): 172 (9) mm^3 | Weekly Median Tumor Volume (number of animals in parentheses) (D10, Group 6: Cmpd B 12.5 mg/kg po, then 6.25 mg/kg po bid × 11 first day 1 dose (start on day 4)): 259 (9) mm^3 | % TGI [1]: 82% | % TGI [2]: 89% | % TGI (Group 5: Cmpd B 9 mg/kg po): 89% | % TGI [3]: 84% | Weekly Median Tumor Volume (number of animals in parentheses) (D15, Group 3: Cmpd B 25 mg/kg po qd × 14): 196 (9) mm^3 | Weekly Median Tumor Volume (number of animals in parentheses) (D15, Group 4: Cmpd B 6.25 mg/kg po bid × 14 first day 1 dose): 126 (9) mm^3 | Weekly Median Tumor Volume (number of animals in parentheses) (D15, Group 5: Cmpd B 9 mg/kg po): 126 (9) mm^3 | Weekly Median Tumor Volume (number of animals in parentheses) (D15, Group 6: Cmpd B 12.5 mg/kg po, then 6.25 mg/kg po bid × 11 first day 1 dose (start on day 4)): 172 (9) mm^3 | Weekly Median Tumor Volume (number of animals in parentheses) (D22, Group 3: Cmpd B 25 mg/kg po qd × 14): 446 (9) mm^3 | Weekly Median Tumor Volume (number of animals in parentheses) (D22, Group 4: Cmpd B 6.25 mg/kg po bid × 14 first day 1 dose): 288 (9) mm^3 | Weekly Median Tumor Volume (number of animals in parentheses) (D22, Group 5: Cmpd B 9 mg/kg po): 288 (9) mm^3 | Weekly Median Tumor Volume (number of animals in parentheses) (D22, Group 6: Cmpd B 12.5 mg/kg po, then 6.25 mg/kg po bid × 11 first day 1 dose (start on day 4)): 550 (9) mm^3 | Weekly Median Tumor Volume (number of animals in parentheses) (D29, Group 3: Cmpd B 25 mg/kg po qd × 14): 864 (5) mm^3 | Weekly Median Tumor Volume (number of animals in parentheses) (D29, Group 4: Cmpd B 6.25 mg/kg po bid × 14 first day 1 dose): 509 (8) mm^3 | Weekly Median Tumor Volume (number of animals in parentheses) (D29, Group 5: Cmpd B 9 mg/kg po): 566 (8) mm^3 | Weekly Median Tumor Volume (number of animals in parentheses) (D29, Group 6: Cmpd B 12.5 mg/kg po, then 6.25 mg/kg po bid × 11 first day 1 dose (start on day 4)): 1008 (9) mm^3 | Weekly Median Tumor Volume (number of animals in parentheses) (D36, Group 3: Cmpd B 25 mg/kg po qd × 14): 867 (4) mm^3 | Weekly Median Tumor Volume (number of animals in parentheses) (D36, Group 4: Cmpd B 6.25 mg/kg po bid × 14 first day 1 dose): 600 (6) mm^3 | Weekly Median Tumor Volume (number of animals in parentheses) (D36, Group 5: Cmpd B 9 mg/kg po): 600 (5) mm^3 | Weekly Median Tumor Volume (number of animals in parentheses) (D36, Group 6: Cmpd B 12.5 mg/kg po, then 6.25 mg/kg po bid × 11 first day 1 dose (start on day 4)): 900 (2) mm^3 | Weekly Median Tumor Volume (number of animals in parentheses) (D43, Group 3: Cmpd B 25 mg/kg po qd × 14): 1015 (2) mm^3 | Weekly Median Tumor Volume (number of animals in parentheses) (D43, Group 4: Cmpd B 6.25 mg/kg po bid × 14 first day 1 dose): 1268 (3) mm^3 | Weekly Median Tumor Volume (number of animals in parentheses) (D43, Group 5: Cmpd B 9 mg/kg po): 1008 (1) mm^3 | Weekly Median Tumor Volume (number of animals in parentheses) (D43, Group 6: Cmpd B 12.5 mg/kg po, then 6.25 mg/kg po bid × 11 first day 1 dose (start on day 4)): 1470 (1) mm^3 | Weekly Median Tumor Volume (number of animals in parentheses) (D50, Group 3: Cmpd B 25 mg/kg po qd × 14): 1327 (2) mm^3 | Weekly Median Tumor Volume (number of animals in parentheses) (D50, Group 4: Cmpd B 6.25 mg/kg po bid × 14 first day 1 dose): 976 (2) mm^3 | Weekly Median Tumor Volume (number of animals in parentheses) (D50, Group 5: Cmpd B 9 mg/kg po): 1470 (1) mm^3 | % TGD [1]: 62% | % TGD [2]: 91% | % TGD (Group 5: Cmpd B 9 mg/kg po): 94% | % TGD [3]: 69% | MTV (n) D54 [1]: 1470 (1) mm^3 | MTV (n) D54 [2]: 486 (1) mm^3 | MTV (n) D15 [1]: 196 (9) mm^3 | MTV (n) D15 [2]: 126 (9) mm^3 | MTV (n) D15 (Group 5: Cmpd B 9 mg/kg po): 126 (9) mm^3 | MTV (n) D15 [3]: 172 (9) mm^3 | T − C [1]: 12.1 days | T − C [2]: 17.8 days | T − C (Group 5: Cmpd B 9 mg/kg po): 18.3 days | T − C [3]: 13.4 days | Mean TTE [1]: 35.4 days | Median TTE [1]: 31.6 days | Mean TTE [2]: 40.7 days | Median TTE [2]: 37.3 days | Mean TTE (Group 5: Cmpd B 9 mg/kg po): 37.8 days | Median TTE (Group 5: Cmpd B 9 mg/kg po): 37.8 days | Mean TTE [3]: 34.9 days | Median TTE [3]: 32.9 days | Individual TTE values (* = non-treatment-related death, Group 4: Cmpd B 6.25 mg/kg po bid × 14 first day 1 dose): 54.0 days and 51.4 days and 50.0 days and 35.1 days and 36.9 days and *40.0 days and 29.0 days and 37.7 days and 31.5 days | Individual TTE values [1]: 23.4 days and 28.3 days and 54.0 days and 50.1 days and 26.5 days and 31.6 days and 38.2 days and 40.2 days and 26.8 days | Individual TTE values (Group 5: Cmpd B 9 mg/kg po): 31.8 days and 42.8 days (2×) and 33.8 days and 41.7 days and 50.3 days and 30.5 days and 28.2 days and 37.8 days | Individual TTE values [3]: 32.9 days and 45.6 days and 35.7 days and 29.7 days and 33.3 days and 41.0 days and 31.1 days and 31.8 days and 32.8 days | Mean BW Nadir [1]: — | Mean BW Nadir [2]: — | Mean BW Nadir (Group 5: Cmpd B 9 mg/kg po): — | Mean BW Nadir [3]: — | Mean TV(n) (n = 1, Group 5: Cmpd B 9 mg/kg po): 1913 mm^3 | Mean TV(n) (n = 2, Group 3: Cmpd B 25 mg/kg po qd × 14): 1635 mm^3 | Mean TV(n) (n = 2, Group 4: Cmpd B 6.25 mg/kg po bid × 14 first day 1 dose): 1076 mm^3 | No. of NTR [1]: 0 | No. of NTR [2]: 1 | No. of NTR (Group 5: Cmpd B 9 mg/kg po): 0 | No. of NTR [3]: 0 | No. of PR [1]: 0 | No. of PR [2]: 0 | No. of PR (Group 5: Cmpd B 9 mg/kg po): 0 | No. of PR [3]: 0
